Experiments:
OPCs [1] = assay: Mitochondrial respiration assay (oxygen consumption rate, XFe96 Seahorse); assay type: cell-based, rat; settings: 2 mM taurine, day 6, basal and benztropine- or miconazole-induced differentiation conditions
Method: Mitochondrial respiration assay. Cellular oxygen consumption rate (OCR) was measured using an XFe96 extracellular flux analyzer (Seahorse Biosciences). OPCs were seeded at 40,000 cells/well in PLP-coated XFe96 plates and cultured for 6 days with taurine (2 and 20 mM) alone, or together with miconazole and benztropine. Cells were then incubated in assay medium (DMEM with 20 mM glucose, 5 mM pyruvate and 5 mM sodium bicarbonate, pH˜7.4) for at least 30 min prior to the assay. Media to deliver a final assay well concentration corresponding to of 1 μM oligomycin, 2 μM carbonyl cyanide 4-(trifluoromethoxy) phenylhydrazone (FCCP) and 2 μM rotenone+2 μM antimycin A were pre-loaded into the compound delivery ports of the system. The assay starts with the recording of the basal OCR, followed by recording of the OCR in response to different compounds that constitute the Mitochondria Stress Test (Seahorse Biosciences, Agilent). Once the basal OCR was measured, the compounds were added sequentially and the effects on OCR measured 3 times every 5 min. Oligomycin blocks ATP synthase; FCCP dissipates the inner membrane potential enabling maximum electron flux through the electron transport chain (ETC); rotenone+antimycin A inhibit complexes I and III, respectively, thereby blocking the entry of electrons in the ETC and shutting down mitochondrial activity.

OPCs [2] = assay: Caspase-Glo 3/7 and Cell Titer Glo assays of apoptosis and survival during differentiation; assay type: cell-based, rat
Method: Detection of caspase 3/7. In poly-D-lysine-coated white 96-well plates (Greiner), cells were seeded at 5,000 cells per well. Taurine (20 mM) was added on days 0 or 3, alone and in combination with benztropine (0.5 μM), miconazole (2 μM), T3 (1 μM) or Staurosporine (1 μM) added on day 0. The Caspase-Glo 3/7 Assay (Promega) was utilized to quantify caspase-3/7 activity 6, 24 and 48 h after drug and taurine addition on day 0. Caspase-3/7 activity was also measured 24, 48 and 72 h (days 4, 5 and 6) after taurine addition on day 3.

[3] = tested on: Rat primary optic nerve OPCs; assay: High content imaging assay of OPC differentiation (MBP, A2B5, DAPI cell counts); assay type: cell-based
Method: Rat primary optic nerve OPCs were isolated by panning (>99% A2B5^+) and cultured in poly-D-lysine (10 μg/ml)-coated TC dishes in OPC culture media (Neurobasal Media, Invitrogen) supplemented with B27-without vitamin A (Invitrogen), 1× non-essential amino acids, 1× Glutamax, 1× anti-anti, β-mercaptoethanol and PDGF-AA (50 ng/ml; Peprotech) at 37° C. with 5% CO2. The culture medium was replaced every 48 h and cells were collected before the confluency reached 60% to maintain a naive state. For differentiation, OPCs were plated at 1 million cells in one 10 cm petri-dish filled with differentiation media, which is identical to the culture media, but with PDGF-AA at 2 ng/ml. T3 and DMSO were used as the positive control and negative control, respectively. Five replicates of cells were collected at different times (0, 3, and 6 days) for metabolomics studies. High content imaging. For dose-response co-treatment experiments, black, clear-bottom 384-well plates (Greiner) were coated with poly-D-lysine (10 μg ml^−1 in PBS). miconazole and benztropine were added at 8 doses in differentiation media; 3-fold dilutions down from 10 μM. taurine was then added at 8 concentrations; 3-fold dilutions down from 20 mM. This 384-well format was also utilized for experiments combining benztropine (0.5 μM), miconazole (2 μM) or T3 (1 μM) with propargylglycine (0.1, 3, 10, 30 μM), reduced glutathione (1, 10, 30, 100 μM) or ascorbic acid ([…]). OPCs were then seeded at a density of 1,000 cells per well, and the plates were incubated at 37° C. with 5% CO2 for 6 days. For time course experiments, cells were seeded at a density of 5,000 cells per well in poly-D-lysine-coated 96-well plates. Cells were treated with DMSO (0.1%), benztropine (0.5 μM), miconazole (2 μM) or T3 (1 μM) on day 0, and taurine (20 mM) was added in combination at 0, 1 or 3 days post-drug treatment. The plates were incubated at 37° C. with 5% CO2 for 6 days. On day 6, cells were then fixed for 20 min with 4% formaldehyde solution and stained with mouse anti-Myelin Basic Protein (MBP) antibody (MAB382, Millipore) or anti-A2B5 antibody (MAB312, Millipore) in 3% BSA, 0.3% Triton X-100 with overnight incubation at 4° C. The cells were washed and incubated with secondary antibody (goat anti-mouse Alexa Fluor488) and DAPI (Invitrogen) for 1 h at room temperature. The cells were washed and plates were sealed and imaged using an Opera confocal imaging reader (Perkin Elmer) or a Cellomics Cell Insight imaging reader (Thermo). An air ×10 lens was used to capture 9 images per well at both wavelengths (488 and 365 nm), with each image representing a different unique locations field in a single well. For image analysis, DAPI-stained nuclei and MBP-positive or A2B5-positive cell bodies were detected using an algorithm that selects for positive cell bodies and nuclei within a range of fluorescent emission values and sizes as determined by fitting parameters to positive (T3, 1 μM) and negative controls (DMSO, 0.1%). The numbers of DAPI-positive objects were enumerated in experiments where cell counts were required. Numerical results from the analyzed images were later exported for analysis using Excel (Microsoft) and/or Genedata software.

SMILES: NCCS(=O)(=O)O [taurine, 2-aminoethanesulfonic acid]
- Oxygen consumption rate (OCR) values (OPCs [1]): significantly increase
- Apoptosis in OPCs treated with staurosporine (OPCs [2]; 20 mM taurine with 1 μM staurosporine (apoptosis inducer)): significantly inhibit
- Caspase 3/7 activation (OPCs [2]; 24 hours after taurine addition at day 0 or day 3, 1 μM T3, 0.5 μM benztropine or 2 μM miconazole): decrease
- Apoptosis or survival under basal differentiation conditions (OPCs [2]; DMSO vehicle): not found to impact
- Enhancement of overall cell number compared to drug treatment alone ([3]; >2 mM taurine with miconazole or benztropine, 6 days): over 20%
- Days of taurine addition with the most significant impact on MBP expression ([3]; dosing initiated at days 0 to 5, evaluated at day 6): between days 1 and 3
- Impact on MBP expression of taurine addition on day 0 compared with days 1 to 3 ([3]; evaluated at day 6): significantly less efficacious
- Impact on number of residual immature A2B5+ OPCs ([3]; taurine added on day 0, 1 or 3 to basal or drug-induced conditions, read at day 3 or day 6): minimal, albeit statistically significant, impact

Source: patent publication US11998602B2, “Methods for promoting myelination and for treating demyelinating diseases” (The Scripps Research Institute, priority 2018, dated 2024)
